# Test results reported in publication PMC12595484, “Optimizing multifunctional fluorescent ligands for intracellular labeling” (Proceedings of the National Academy of Sciences of the …, 2025).
# Legend:
# [1] = Determination of lactone–zwitterion equilibrium constant KL–Z; type: physicochemical; conditions: 1:1 (v/v) dioxane–water
# Procedure: Detailed descriptions of the materials and methods are provided in the supporting information. Multifunctional rhodamine–HaloTag ligands (13HTL–16HTL and 18HTL–20HTL) were synthesized using palladium-catalyzed cross-coupling reactions to install 3-carboxyazetidine moieties onto rhodamine scaffolds, followed by amide bond formation with biotin–PEG2–NH2, (S)-JQ1–PEG2–NH2, or (R)-JQ1–PEG2–NH2. Spectroscopic properties (λabs, λem, ε, and Φf) were determined in 10 mM HEPES, pH 7.3. The lactone–zwitterion equilibrium constants (KL–Z) were measured in 1:1 (v/v) dioxane–water mixtures. Octanol–water distribution coefficients (logD7.4) were determined by miniaturized shake-flask partitioning experiments using PBS (pH 7.4) and 1-octanol. Cell culture experiments employed HEK293T, U2OS, and Neuro2a cells transfected with HaloTag fusion constructs and labeled with ligands (100 nM to 1 μM, 0.5 to 2 h at 37 °C), followed by fluorescence microscopy using confocal or lattice light-sheet microscopy. Affinity purification studies utilized streptavidin magnetic beads to capture biotin-labeled HaloTag conjugates, with analysis by SDS-PAGE and in-gel fluorescence detection. […]
# Reported values for extinction coefficient (ε) are averages of at least two […]
# Determination of KL−Z. The lactone−zwitterion equilibrium constant (KL−Z) was calculated as described previously2-4 using equation 1: […]
# where εdw is the extinction coefficient of the dyes in a 1:1 (v/v) dioxane:water solvent mixture containing 0.01% (v/v) triethylamine; this dioxane−water mixture was chosen to give a large range of KL−Z values,3 and the triethylamine additive ensures the rhodamines are in the net neutral form.
# The εmax is the maximal extinction coefficient, measured in 0.1% (v/v) trifluoroacetic acid in 2,2,2-trifluoroethanol (TFE) or ethanol. […]
# [2] = test system: OMP25–msGFP–HaloTag fusion protein in HEK293T cells; assay: Pulse–chase HaloTag labeling efficiency, SDS–PAGE/in-gel fluorescence; type: cell-based; conditions: 2 h, mean ± SEM
# Procedure: PBS, 2% (v/v) SDS, 1% (v/v) Triton x-100, 10 mM EDTA, and protease inhibitors (2 mM PMSF, aprotinin, leupeptin, and pepstatin A). Samples were then incubated at 50 °C for 3–4 min after the addition of Laemmli sample buffer (SB; Bio-Rad, 1610747) with β-mercaptoethanol (Bio-Rad, 1610710). For protein detection, 10–20 µL of the sample was subjected to SDS-PAGE, using 10% Tris-Glycine gels (TGX) (Bio-Rad, 5671034) with Tris-Glycine buffer (Bio-Rad, 1610732). […]
# Quantification of HaloTag labeling efficiency using in-gel fluorescence. HEK293T cells were cultured, incubated and transfected with pF(UG) hSyn HaloTag-TEV-4×GS-msGFP-mito using lipofectamine LTX reagent as described above. To examine saturation of HaloTag, we screened for fluorescence plateau using 1 μM of JF479-HaloTag ligand,4 JF549-HaloTag ligand (2HTL) and […]
# (2HTL) and JF608-HaloTag ligand (3HTL) reached a fluorescence plateau, and they were chosen as saturating counter stains or “chase” dyes for examining the labeling efficiency of biotin-JF-HaloTag ligands (13HTL–16HTL). Next, we developed an in-gel assay to independently quantitate labeling efficiencies of 13HTL–16HTL. We used JF549-HaloTag ligand (2HTL) as chase for evaluating biotin-JF608-HaloTag ligand (14HTL), biotin-JF646-HaloTag ligand (15HTL), and biotin-JF635-HaloTag ligand (16HTL). We used JF608-HaloTag ligand (3HTL) as chase for evaluating biotin-JF549-HaloTag ligand (13HTL). Each experiment consisted of testing the biotin variants 13HTL–16HTL at 100 nM and 1 μM with an incubation time of 2 h and a chase labeling incubation of 1 μM for 0.5 h. The 0.5 h chase labeling period was included with the 2 h total incubation. Each experiment consisted of the following conditions: untransfected cells; (A) transduced, but no dye; (B) non-biotinylated variant of primary label at 1 μM for 0.5 h; (C) the nonbiotinylated version of the chase JF dye at 1 μM for 0.5 h; (D) 100 nM of the nonbiotinylated version of the primary label for 2 h; (E) 100 nM of the biotinylated version of primary label for 2 h; (F) 1 μM of the nonbiotinylated version of the primary label for 2 h; (G) 1 μM of the biotinylated version of primary label for 2 h; and (H) 1 μM of the non-biotinylated version of the chase JF dye at 1 μM for 2 h. This last condition H was the same as condition C but with a longer incubation (2 h vs. 0.5 h) to allow independent verification of the chase saturation using 0.5 h incubation. Samples D–G were incubated with a nonbiotinylated chase dye at 1 μM for 0.5 h. Cells were washed and protein lysates were harvested using Bio-Rad SDS-PAGE products as described above. Specifically, cells were lysed using protein lysis buffer as described above, and adding XT Sample Buffer (Bio-Rad, 1610791) and XT Reducing Agent (Bio-Rad, 1610792). Samples were heated at 72 °C for 5 min. Samples were then loaded onto a 4–12% Criterion XT Bis-Tris gel (Bio-Rad, 3450124) and ran at 150 V for approximately 1 h. Gels were then imaged on a Chemidoc MP imager (Bio-Rad) using orange, red, and far-red filters. Bands representing HaloTag ligand were quantified by densitometry using […]
# labeling efficiency calculations, bands representing saturating chase dye fluorescence (e.g., JF549) were compared to saturating primary dye fluorescence allowing estimation of the amount of […]
# Where F is the fraction of HaloTag protein labeled, Ce is the experimental chase dye fluorescence signal after incubation with pulse biotin-JF-HaloTag ligand, and Cs is the saturating chase dye fluorescence without incubation with a pulse ligand.
# Neuro2a cell culture, labeling, lattice light sheet microscopy (LLSM), and confocal microscopy. Neuro2a cells (ATCC, CCL-131) were cultured in Eagle's minimum essential medium (MEM, phenol red-free; Life Technologies) supplemented with 10% (v/v) fetal bovine serum (FBS), and maintained at 37 °C in a humidified 5% (v/v) CO2 environment. Cells were transiently transfected using nucleofection (Lonza) with plasmids constitutively expressing
Structure (SMILES),KL–Z [1],labeling efficiency ([2]; 100 nM pulse) [%],labeling efficiency ([2]; 1 µM pulse) [%]
"C[Si]1(C)c2cc(N3CC(F)C3)ccc2C2(OC(=O)c3ccc(C(=O)NCCOCCOCCCCCCCl)cc32)c2ccc(N3CC(F)C3)cc21 [6HTL, JF635–HaloTag ligand, reference compound]",0.0048,,
"O=C(CCCCC1SCC2NC(=O)NC21)NCCOCCOCCNC(=O)C1C[N+](=c2ccc3c(-c4cc(C(=O)NCCOCCOCCCCCCCl)ccc4C(=O)[O-])c4ccc(N5CCC5)cc4oc-3c2)C1 (stereo not shown) [13HTL, biotin–JF549–HaloTag ligand]",5.9,< 3,< 3
"CC1(C)C2=CC(=[N+]3CC(C(=O)NCCOCCOCCNC(=O)CCCC[C@@H]4SC[C@@H]5NC(=O)N[C@@H]54)C3)C=CC2=C(c2cc(C(=O)NCCOCCOCCCCCCCl)ccc2C(=O)[O-])c2ccc(N3CCC3)cc21 (stereo partly shown) [14HTL, biotin–JF608–HaloTag ligand]",0.17,11.3 ± 6.4,57.7 ± 9.6
"C[Si]1(C)C2=CC(=[N+]3CC(C(=O)NCCOCCOCCNC(=O)CCCC[C@@H]4SC[C@@H]5NC(=O)N[C@@H]54)C3)C=CC2=C(c2cc(C(=O)NCCOCCOCCCCCCCl)ccc2C(=O)[O-])c2ccc(N3CCC3)cc21 (stereo partly shown) [15HTL, biotin–JF646–HaloTag ligand]",0.0086,13.6 ± 3.7,61.7 ± 6.8
"C[Si]1(C)C2=CC(=[N+]3CC(F)(C(=O)NCCOCCOCCNC(=O)CCCC[C@@H]4SC[C@@H]5NC(=O)N[C@@H]54)C3)C=CC2=C(c2cc(C(=O)NCCOCCOCCCCCCCl)ccc2C(=O)[O-])c2ccc(N3CC(F)C3)cc21 (stereo partly shown) [16HTL, biotin–JF635–HaloTag ligand]",0.0032,18.0 ± 4.9,69.0 ± 4.2
